Measured values: paper PMC6332318, “Synthetic Development of New 3-(4-Arylmethylamino)butyl-5-arylidene-rhodanines under Microwave Irradiation and Their Effects on Tumor Cell Lines and against Protein Kinases” (Molecules, 2015)
pIC50: −log10 of the molar value.

Tests used:
[1] = test system: Caco 2 cells (differentiating colorectal adenocarcinoma); assay: in vitro inhibition of cell proliferation / survival assay; assay type: cell-based; details: Homo sapiens; for pIC50: 48 h, average of three assays, standard error ± 0.5 μM; for viability at 25 µM: measured at 25 μM after 48 h, single dose, triplicate
Description: (§1) As an initial effort to investigate their in vitro bioactivity, the new synthesized 3-(4-arylmethylamino)butyl-2-thioxo-1,3-thiazolidine-4-one 9a–n and also their precursors 6a–f were evaluated for their in vitro inhibition of cell proliferation. For this study, we used a panel of seven representative tumoral cell lines, namely HuH7 D12 (differential hepato cellular carcinoma), Caco 2 (differentiating colorectal adenocarcinoma), MDA-MBD231 ([…]), HCT 116 (actively proliferating colorectal adenocarcinoma), PC3 (prostate carcinoma), NCI-H727 (lung carcinoma), HaCat keratinocyte and, diploid skin fibroblasts as normal cell lines for control.
(§2) Skin diploid fibroblastic cells were provided by BIOPREDIC International Company (Rennes, France). Caco2 (Ref ECACC: 86010202), Huh-7D12 (Ref ECACC: 01042712), MDA-MB-231 (Ref ECACC: 92020424), HCT-116 (Ref ECACC: 91091005), PC3 (Ref ECACC: 90112714), NCI-H727 (Ref ECACC: 94060303) cell lines were obtained from the ECACC collection and HaCaT (from Cell Lines Service, Eppelheim, Germany). Cells were grown according to ECACC recommendations. The toxicity test of the compounds on these cells was as follows: 2 × 10^3 cells for HCT-116 cells or 4 × 10^3 for the other cells were seeded in 96 multiwell plates in triplicate and left for 24 h for attachment, spreading and growing. Then, cells were exposed for 48 h to increasing concentrations of the compounds, ranging from 0.1 to 25 μM in a final volume of 120 μL of culture medium. Cells were fixed in cooled solution of 90% ethanol/5% acetic acid, nuclei were stained with Hoechst 3342 (Sigma) and counted using automated imaging analysis (Cellomics Arrayscan VTI/HCS Reader, Thermo/Scientific, Waltham, MA, USA). The IC50 were graphically determined.

[2] = test system: HCT 116 cells (actively proliferating colorectal adenocarcinoma); assay: as above; assay type: cell-based; details: Homo sapiens; for pIC50: 48 h, average of three assays, standard error ± 0.5 μM; for viability at 25 µM: measured at 25 μM after 48 h, single dose, triplicate
Description: as §1, §2

HaCat keratinocyte = assay: as above; assay type: cell-based; details: for pIC50: 48 h, average of three assays, standard error ± 0.5 μM; for viability at 25 µM: measured at 25 μM after 48 h, single dose, triplicate
Description: as §1, §2

[3] = test system: Huh7 D12 cells (differential hepato cellular carcinoma); assay: as above; assay type: cell-based; details: for pIC50: Huh-7D12, 48 h, average of three assays, standard error ± 0.5 μM; for viability at 25 µM: Huh-7D12, measured at 25 μM after 48 h, single dose, triplicate
Description: as §1, §2

MDA-MB231 cells = assay: as above; assay type: cell-based; details: Homo sapiens; for pIC50: MDA-MB-231, 48 h, average of three assays, standard error ± 0.5 μM; for viability at 25 µM: MDA-MB-231, measured at 25 μM after 48 h, single dose, triplicate
Description: as §1, §2

[4] = test system: NCI-H727 cells (lung carcinoma); assay: as above; assay type: cell-based; details: Homo sapiens, NCI-H727; for pIC50: 48 h, average of three assays, standard error ± 0.5 μM; for viability at 25 µM: measured at 25 μM after 48 h, single dose, triplicate, read-out: % of Survival
Description: as §1, §2

[5] = test system: PC3 cells (prostate carcinoma); assay: as above; assay type: cell-based; details: Homo sapiens; for pIC50: PC-3, 48 h, average of three assays, standard error ± 0.5 μM; for viability at 25 µM: PC-3, measured at 25 μM after 48 h, single dose, triplicate
Description: as §1, §2

diploid skin fibroblasts = assay: in vitro inhibition of cell proliferation / survival assay, normal cells control; assay type: cell-based; details: Skin fibroblast, Fibroblasts; for pIC50: 48 h, average of three assays, standard error ± 0.5 μM; for viability at 25 µM: measured at 25 μM after 48 h, single dose, triplicate, read-out: % of Survival
Description: as §1, §2

SsGSK-3α/β = assay: protein kinase assay, [γ-33P] ATP; assay type: biochemical, porcine; details: 15 μM ATP; GS-1 substrate; >10 = inhibitory but IC50 > 10 μM
Description: (§3) Then, we evaluated the intermediates salts 6a–f and fourteen final compounds 9a–n on four protein kinases: HsCDK5-p25 (cyclin-dependant kinase 5-p25), SsGSK-3α/β (glycogen synthase kinase-3α/β) SsCK1δ/ε (Caseine kinase 1) and HsHaspin as an essential mitotic kinase. All assays were run in the presence of 15 μM of ATP and appropriate substrates. IC50 values were determined from dose-response curves. Concerning the library of the fourteen (5Z) 3-(4-arylmethylamino)butyl-5-arylidene-2-thioxo-1,3-thiazolidine-4-ones 9a–n and also the six diamines salts 6a–f, the results are given in Table 3. […] It is interesting to note that these two compounds are respectively substituted with an hydroxyl function on para-position of the 5-arylidene moiety and also with a similar bulky group (1,3-benzodioxol-5-yl for 9j and 2,3-dihydro-benzo[1,4]dioxin-6-yl for 9n) on the arylmethylamino moiety grafted on the N-3 butyl chain.
(§4) Kinase activities for each enzyme were assayed in buffer A (25 mM Tris-HCl pH 7.5, 10 mM MgCl2, 1 mM EGTA, 1 mM DTT, 50 µg/mL Heparin, BSA 0.15 mg/mL) or B (60 mM β-glycerophosphate, 30 mM p-Nitrophenylphosphate, 25 mM MOPS, 5 mM EGTA, 15 mM MgCl2, 1 mM DTT, 0.1 mM Na vanadate), with their corresponding substrates, in the presence of 15 µM [γ-^33P] ATP (3000 Ci/mmol; 10 mCi/mL) in a final volume of 30 µL. After 30 min incubation at 30 °C, the reaction was stopped by harvesting, using a FilterMate harvester (Packard, Meriden, CT, USA), onto P81 phosphocellulose papers (GE Healthcare, Velizy-Villacoublay, France) which were washed in 1% phosphoric acid. Scintillation fluid was added and the radioactivity measured in a Packard counter. Blank values were subtracted and activities calculated as pmoles of phosphate incorporated during the 30 min incubation. The activities were expressed in a percentage of the maximal activity, i.e., in the absence of inhibitors. Controls were performed with appropriate dilutions of DMSO. CK1 and Haspin peptide substrates were obtained from Proteogenix (Oberhausbergen, France).
GSK-3α/β (porcine brain, native) was assayed, as described for CDK5/p25 but in Buffer A and using a GSK-3 specific substrate (GS-1: […]pEDEEE) (pS stands for phosphorylated serine). GS-1 was synthesized by Millegen (Labege, France).

SsCK1δ/ε = assay: protein kinase assay, [γ-33P] ATP; assay type: biochemical, porcine; details: 15 μM ATP; CKS peptide substrate; >10 = inhibitory but IC50 > 10 μM
Description: as §3, §4
Casein kinase 1 (CK1δ/ε) (porcine brain, native) was assayed with 0.67 µg of CKS peptide ([…]pSAYSITA).

pIC50 (SsGSK-3α/β) | pIC50 (SsCK1δ/ε) | melting point | SMILES | pIC50 [1] | viability at 25 µM [1] | pIC50 [2] | viability at 25 µM [2] | pIC50 (HaCat keratinocyte; Homo sapiens, HaCaT) | viability at 25 µM (HaCat keratinocyte; Homo sapiens) | pIC50 [3] | viability at 25 µM [3] | pIC50 (MDA-MB231 cells) | viability at 25 µM (MDA-MB231 cells) | pIC50 [4] | viability at 25 µM [4] | pIC50 [5] | viability at 25 µM [5] | pIC50 (diploid skin fibroblasts) | viability at 25 µM (diploid skin fibroblasts) | pIC50 (HaCat keratinocyte)
< 5.00 | 5.85 |  | O=C1/C(=C/c2ccc(O)cc2)SC(=S)N1CCCCNCc1ccc2c(c1)OCO2 [Compound 9j, (5Z)3-[4-(1,3-Benzodioxol-5-ylmethylamino)butyl]-5-(4-hydroxy-benzylidene)-2-thioxo-1,3-thiazolidin-4-one] | 4.57 | 41% | 4.66 | 40% | 4.89 | 21% | 4.96 | 22% | 4.72 | 42% | 4.72 | 33% | 4.72 | 38% | < 4.60 | 77% | 
< 5.00 | 5.27 | 253 to 257 °C | O=C1/C(=C/c2ccc3c(c2)OCCO3)SC(=S)N1CCCCNCc1ccc2c(c1)OCO2 [Compound 9i, (5Z)3-[4-(1,3-Benzodioxol-5-ylmethylamino)butyl]-5-(2,3-dihydro-1,4-benzodioxin-6-ylmethylene)-2-thioxo-1,3-thiazolidin-4-one] | 4.89 | 17% | 4.85 | 8% | > 5.00 | 6% | 5.05 | 5% | 5.05 | 17% | 4.96 | 9% | 4.85 | 39% | < 4.60 | 54% | 5.10
< 5.00 | 5.70 | 202 to 204 °C | COc1cc(/C=C2\SC(=S)N(CCCCNCc3ccc4c(c3)OCCO4)C2=O)ccc1O [Compound 9n, (5Z)3-[4-(2,3-Dihydro-benzo[1,4]dioxin-6-ylmethylamino)butyl]-5-(4-hydroxy-3-methoxybenzylidene)-2-thioxo-1,3-thiazolidin-4-one] | 4.80 | 28% | 4.68 | 52% | 4.82 | 48% | 4.82 | 41% | 4.82 | 55% | 4.77 | 63% | 4.72 | 61% | < 4.60 | 86% | 
< 5.00 | 5.18 | 245 to 256 °C | O=C1/C(=C/c2ccc3c(c2)OCO3)SC(=S)N1CCCCNCc1ccc2c(c1)OCO2 [Compound 9h, (5Z)3-[4-(1,3-Benzodioxol-5-ylmethylamino)butyl]-5-(1,3-benzodioxol-5-ylmethylene)-2-thioxo-1,3-thiazolidin-4-one] | 4.85 | 42% | 4.89 | 65% | 5.00 | 10% | 5.00 | 7% | 5.00 | 49% | < 4.60 | 43% | 4.89 | 51% | < 4.60 | 80% | 
